In US20080234241A1, “MELANOGENESIS INHIBITORS AND WHITENING AGENTS COMPRISING ERGOSTEROL DERIVATIVE AND COMPOSITIONS CONTAINING ERGOSTEROL DERIVATIVE” (Sakamoto Bio Co., Ltd., priority 2000, published 2008):

Assays:
B 16 IOF7 melanoma cells = assay: Melanogenesis inhibitory effect in B16 melanoma cells; assay type: cell-based, mouse; conditions: for Minimum concentration for inhibition of melanogenesis: B16 cells cultivated 72 hours at 37° C., melanin from absorbance at 470 nm against methanol-treated control as 100%
Procedure: Melanogenesis inhibitory activity was evaluated using B 16 IOF7 melanoma cells (obtained from the Akita Research Institute of Food and Brewing, Japan), which are melanogenic cells of mouse cells, by application to the cells of an isolated form of Formula (1) described above in a solution diluted with the couture medium, thereby observing the production of melanin. The B16 cells, cultivated to a 70% confluent level in a flask, were washed with PBS and then were treated with a trypsin solution to isolate the cells. The same volume of a serum-containing culture medium (E-MEM, 10% FBS) as that of the trypsin was added to the flask, followed by collecting the cells and centrifuging (800 rpm, 5 min.). After this phase of the process, the number of cells was counted and adjusted to approximately 10^4 cells/ml in the culture medium (E-MEM, 10% FBS). A diluted solution of Formula (1) was prepared by placing 20 μL of sterile PBS on a cell culturing plate (a type for adherent cells) along with 20 μL of a Formula (1) solution, thereby doubling dilution (a final concentration in the culture medium from 100 μg/mL to […]). The control arbutin (a final concentration in the culture medium from 140 μg/mL to 0.22 μg/mL) in methanol was similarly diluted.
Then 80 μL of the cell suspension was added to the diluted sample solution (20 μL) on the plate, and the mixture was cultivated in a CO2 incubator at 37° C. for 72 hours. Melanogenesis in the cells was observed under a microscope. In cases where melanogenesis was confirmed microscopically, the culture medium was removed, and the cell layer was treated with 300 μL of 1N NaOH to dissolve the melanin, where the concentration of the melanin formed was determined from measurement of absorbance at 470 nm. The levels of Formula (1) and arbutin used were varied to determine their minimum concentrations needed for inhibiting melanogenesis, against the value of the methanol-treated control as 100%.

[1] = test system: pigment deposition on brachial skin; assay: Measurement of whitening effect: lotion applied to brachial skin after exposure to sun light; assay type: in vivo, men; conditions: for Decision (whitening effect): lotion, group of 20 men, applied twice everyday for 5 weeks starting five days after sun exposure; for Whitening effect of lotions, result in words: lotions of Table 2, 20 men, 5 weeks
Procedure: Preparation the Alcohol and Water Phases are Prepared, Mixed, and Dissolved
A test group made up of 20 men was exposed to sun light in summer for four hours per day from […]. for 2 days. Five days after the exposure to the sun light, the lotion described above was applied to the group on the brachial skin twice everyday, once each in the morning and in the evening for 5 weeks.

| SMILES | Minimum concentration for inhibition of melanogenesis (B 16 IOF7 melanoma cells) | Microscopic observation of melanogenesis in B16 cells (B 16 IOF7 melanoma cells; 72 hours culture, compared with arbutin) | Decision (whitening effect) ([1]; content 0.2 % w/w) | Decision (whitening effect) ([1]; content 1.0 % w/w) | Whitening effect of lotions, result in words [1] |
| --- | --- | --- | --- | --- | --- |
| OC[C@H]1O[C@@H](Oc2ccc(O)cc2)[C@H](O)[C@@H](O)[C@@H]1O [Arbutin, arbutin, reference compound] | 0.88 µg/mL |  |  |  |  |
| CC(C)[C@@H](C)/C=C/[C@@H](C)[C@H]1CC[C@@H]2[C@]1(C)CCC1[C@]23C=C[C@]2(C[C@@H](O)CC[C@]12C)OO3 (stereo partly drawn) [Formula (1), 5α,8α-epidioxy-(22E,24R)-orgosta-6,22-dien-3β-ol] | 0.045 µg/mL | inhibited more extensively by Formula (1) than by arbutin | B (11 to 15 out of the group rated “Effective” or “More effective”) | A (16 or more out of the group rated “Effective” or “More effective”) | prevented pigment deposition and gave a whitening effect |
| Oc1ccc(O)cc1 [hydroquinone, reference compound] |  |  |  | C (6 to 10 out of the group rated “Effective” or “More effective”) | nor Comparative example 2 (hydroquinone) was effective |
